Measurements from ChEMBL document CHEMBL6109039, “Designed and synthesized novel tripeptides targeting diabetes and its related pathologies” (Eur J Med Chem, 2025).
Residues, ends and D or L forms follow the SMILES beside them.

How the values were obtained:
Albumin [1] = molecular target: T1, Albumin (Homo sapiens, UniProt P02768); assay: Inhibition of D-glucose glycation in human serum albumin model by measuring ketoamine moieties incubated for 30 days by Nitroblue tetrazolium (NBT) reduction assay (reference value: 27.85 nmol/mL); conditions: 720 h, time 30 day
Albumin [2] = molecular target: T1, Albumin; assay: Inhibition of D-glucose glycation in human serum albumin model by measuring absorbance at 279 nm incubated for 26 days by UV spectroscopic analysis (reference value: 2.301); conditions: 624 h, time 26 day
Albumin [3] = molecular target: T1, Albumin; assay: Inhibition of D-glucose glycation in human serum albumin model by measuring ketoamine moieties incubated for 14 days by Nitroblue tetrazolium (NBT) reduction assay (reference value: 28.69 nmol/mL); conditions: 336 h, time 14 day
Mus musculus [4] = assay: Antidiabetic activity in Nicotinamide/Streptozotocin induced male Balb/c mouse model assessed as change in body weight at 63.81 ug/kg, ip measured immediately (reference value: 25.08 +/- 1.25 g); assay type: functional; conditions: dose 63.81 µg/kg
Albumin [5] = molecular target: T1, Albumin; assay: Inhibition of D-fructose glycation in human serum albumin model by measuring ketoamine moieties incubated for 7 days by Nitroblue tetrazolium (NBT) reduction assay (reference value: 125.33 nmol/mL); conditions: 168 h, time 7 day
Albumin [6] = molecular target: T1, Albumin; assay: Inhibition of D-glucose glycation in human serum albumin by measuring absorbance at 279 nm model incubated for 14 days by UV spectroscopic analysis (reference value: 2.302); conditions: 336 h, time 14 day
Mus musculus [7] = assay: Antidiabetic activity in Nicotinamide/Streptozotocin induced male Balb/c mouse model assessed as reduction in fasting blood glucose levels at 63.81 ug/kg, ip measured after 7 days by glucometer analysis (reference value: 160.5 +/- 8.02 mg/dl); assay type: functional; conditions: dose 63.81 µg/kg, time 7 day
Mus musculus [8] = assay: Antidiabetic activity in Nicotinamide/Streptozotocin induced male Balb/c mouse model assessed as reduction in fasting blood glucose levels at 63.81 ug/kg, ip measured after 14 days by glucometer analysis (reference value: 168.5 +/- 8.42 mg/dl); assay type: functional; conditions: dose 63.81 µg/kg, time 14 day
Pancreatic alpha-amylase = molecular target: T2, Pancreatic alpha-amylase (Sus scrofa, UniProt P00690); assay: Inhibition of porcine pancreatic Alpha-amylase using starch as substrate pre-incubated for 20 mins followed by substrate addition and measured after 15 mins by DNS reagent based absorbance assay
T2 sequence (P00690 whole entry): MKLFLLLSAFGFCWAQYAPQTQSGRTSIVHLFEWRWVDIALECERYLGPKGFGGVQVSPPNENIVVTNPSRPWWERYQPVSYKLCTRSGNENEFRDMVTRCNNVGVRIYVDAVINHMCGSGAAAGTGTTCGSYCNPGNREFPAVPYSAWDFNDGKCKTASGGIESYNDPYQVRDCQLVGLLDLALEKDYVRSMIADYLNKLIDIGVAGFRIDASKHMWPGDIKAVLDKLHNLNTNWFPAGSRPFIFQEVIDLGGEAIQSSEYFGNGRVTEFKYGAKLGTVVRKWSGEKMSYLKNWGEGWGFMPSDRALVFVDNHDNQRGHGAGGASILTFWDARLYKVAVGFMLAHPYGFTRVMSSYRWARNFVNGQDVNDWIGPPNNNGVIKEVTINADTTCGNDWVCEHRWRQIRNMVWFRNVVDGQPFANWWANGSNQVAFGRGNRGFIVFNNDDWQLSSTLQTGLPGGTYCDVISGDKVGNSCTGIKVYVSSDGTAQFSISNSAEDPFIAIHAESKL

Albumin [9] = molecular target: T1, Albumin; assay: Inhibition of D-fructose glycation in human serum albumin model by measuring absorbance at 279 nm incubated for 7 days by UV spectroscopic analysis (reference value: 1.072); conditions: 168 h, time 7 day
Albumin [10] = molecular target: T1, Albumin; assay: Inhibition of D-fructose glycation in human serum albumin model by measuring ketoamine moieties incubated for 26 days by Nitroblue tetrazolium (NBT) reduction assay (reference value: 118.21 nmol/mL); conditions: 624 h, time 26 day
Albumin [11] = molecular target: T1, Albumin; assay: Inhibition of D-fructose glycation in human serum albumin model by measuring ketoamine moieties incubated for 30 days by Nitroblue tetrazolium (NBT) reduction assay (reference value: 128.71 nmol/mL); conditions: 720 h, time 30 day
Mus musculus [12] = assay: Antidiabetic activity in Nicotinamide/Streptozotocin induced male Balb/c mouse model assessed as reduction in aspartate transaminase level in blood at 63.81 ug/kg, ip treated for 21 days (reference value: 171 +/- 8.55 U/L); assay type: functional; conditions: dose 63.81 µg/kg, time 21 day
Albumin [13] = molecular target: T1, Albumin; assay: Inhibition of D-glucose glycation in human serum albumin model incubated for 14 days by UV spectroscopic analysis relative to control; conditions: 336 h, time 14 day
Albumin [14] = molecular target: T1, Albumin; assay: Inhibition of D-glucose glycation in human serum albumin model assessed as reduction in fluorescence intensity incubated for 3 days by UV spectroscopic analysis relative to control; conditions: 72 h, time 3 day
Albumin [15] = molecular target: T1, Albumin; assay: Inhibition of D-glucose glycation in human serum albumin model by measuring ketoamine moieties incubated for 26 days by Nitroblue tetrazolium (NBT) reduction assay (reference value: 28.79 nmol/mL); conditions: 624 h, time 26 day
Mus musculus [16] = assay: Antidiabetic activity in Nicotinamide/Streptozotocin induced male Balb/c mouse model assessed as reduction in VLDL-cholesterol level in blood at 63.81 microg/kg, ip treated for 21 days (reference value: 14 +/- 0.6 mg/dL); assay type: functional; conditions: dose 63.81 µg/kg, time 21 day
Albumin [17] = molecular target: T1, Albumin; assay: Inhibition of D-glucose glycation in human serum albumin model by measuring absorbance at 279 nm incubated for 30 days by UV spectroscopic analysis (reference value: 2.295); conditions: 720 h, time 30 day
Albumin [18] = molecular target: T1, Albumin; assay: Inhibition of D-glucose glycation in human serum albumin model by measuring ketoamine moieties incubated for 3 days by Nitroblue tetrazolium (NBT) reduction assay (reference value: 24.27 nmol/mL); conditions: 72 h, time 3 day
Mus musculus [19] = assay: Antidiabetic activity in Nicotinamide/Streptozotocin induced male Balb/c mouse model assessed as change in body weight at 63.81 ug/kg, ip treated for 21 days relative to control; assay type: functional; conditions: dose 63.81 µg/kg, time 21 day
Mus musculus [20] = assay: Antidiabetic activity in Nicotinamide/Streptozotocin induced male Balb/c mouse model assessed as reduction in total cholesterol level in blood at 63.81 ug/kg, ip treated for 21 days (reference value: 121 +/- 6.05 mg/dL); assay type: functional; conditions: dose 63.81 µg/kg, time 21 day
Albumin [21] = molecular target: T1, Albumin; assay: Inhibition of D-fructose glycation in human serum albumin model by measuring absorbance at 279 nm incubated for 30 days by UV spectroscopic analysis (reference value: 2.323); conditions: 720 h, time 30 day
Mus musculus [22] = assay: Antidiabetic activity in Nicotinamide/Streptozotocin induced male Balb/c mouse model assessed as reduction in Triglycerides level in blood at 63.81 ug/kg, ip treated for 21 days (reference value: 61 +/- 3.05 mg/dL); assay type: functional; conditions: dose 63.81 µg/kg, time 21 day
Albumin [23] = molecular target: T1, Albumin; assay: Inhibition of D-fructose glycation in human serum albumin model by measuring ketoamine moieties incubated for 33 days by Nitroblue tetrazolium (NBT) reduction assay (reference value: 144.33 nmol/mL); conditions: 792 h, time 33 day
Albumin [24] = molecular target: T1, Albumin; assay: Inhibition of D-glucose glycation in human serum albumin model by measuring absorbance at 279 nm incubated for 33 days by UV spectroscopic analysis (reference value: 1.997); conditions: 792 h, time 33 day
Mus musculus [25] = assay: Antidiabetic activity in Nicotinamide/Streptozotocin induced male Balb/c mouse model assessed as reduction in HDL-cholesterol level in blood at 63.81 ug/kg, ip treated for 21 days (reference value: 30 +/- 1.80 mg/dL); assay type: functional; conditions: dose 63.81 µg/kg, time 21 day
Albumin [26] = molecular target: T1, Albumin; assay: Inhibition of D-fructose glycation in human serum albumin model incubated for 14 days by UV spectroscopic analysis relative to control; conditions: 336 h, time 14 day

T1 sequence (P02768 whole entry): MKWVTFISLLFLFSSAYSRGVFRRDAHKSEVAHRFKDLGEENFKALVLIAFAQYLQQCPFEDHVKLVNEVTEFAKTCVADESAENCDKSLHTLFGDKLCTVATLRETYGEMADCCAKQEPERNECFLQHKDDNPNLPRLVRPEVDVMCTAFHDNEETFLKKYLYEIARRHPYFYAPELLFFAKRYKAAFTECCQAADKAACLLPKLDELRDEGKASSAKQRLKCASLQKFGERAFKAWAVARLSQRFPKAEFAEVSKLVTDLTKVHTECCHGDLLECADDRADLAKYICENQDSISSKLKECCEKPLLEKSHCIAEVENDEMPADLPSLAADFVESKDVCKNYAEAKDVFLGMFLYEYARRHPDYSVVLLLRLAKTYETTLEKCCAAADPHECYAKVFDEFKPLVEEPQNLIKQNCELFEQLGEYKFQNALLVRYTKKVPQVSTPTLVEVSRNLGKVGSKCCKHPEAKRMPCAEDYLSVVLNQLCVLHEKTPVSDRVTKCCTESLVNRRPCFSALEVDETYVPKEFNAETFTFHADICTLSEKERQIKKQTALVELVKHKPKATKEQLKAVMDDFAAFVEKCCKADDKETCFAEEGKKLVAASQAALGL

## N=C(N)NCCC[C@H](N)C(=O)N[C@@H](Cc1c[nH]c2ccccc12)C(=O)N[C@@H](Cc1c[nH]c2ccccc12)C(=O)O (H-Arg-Trp-Trp-OH)
Albumin [1]
  Activity: 18.908 nmol/mL
Albumin [2]
  OD: 2.301
Albumin [3]
  Activity: 9.573 nmol/mL
Mus musculus [4]
  Activity: 29.56 g
Albumin [5]
  Activity: 113.45 nmol/mL
Albumin [6]
  OD: 0.443
Mus musculus [7]
  Activity: 150 mg/dL
Mus musculus [8]
  Activity: 134 mg/dL
Pancreatic alpha-amylase
  IC50: 96 µM
Albumin [9]
  OD: 0.665
Albumin [10]
  Activity: 142.17 nmol/mL
Albumin [11]
  Activity: 108.46 nmol/mL
Mus musculus [12]
  Activity: 152 U/L
Albumin [13]
  inhibition (INH): 74.68%
Albumin [14]
  inhibition (INH): 78%
Albumin [15]
  Activity: 20.174 nmol/mL
Mus musculus [16]
  Activity: 11 mg/dL
Albumin [17]
  OD: 2.555
Albumin [18]
  Activity: 19.383 nmol/mL
Mus musculus [19]
  Activity: 2.7%
Mus musculus [20]
  Activity: 108 mg/dL
Albumin [21]
  OD: 1.591
Mus musculus [22]
  Activity: 53 mg/dL
Albumin [23]
  Activity: 109.89 nmol/mL
Albumin [24]
  OD: 1.236
Mus musculus [25]
  Activity: 41 mg/dL
Albumin [26]
  inhibition (INH): 16.45%
